Reference: patent US20170190671A1, “BIS(ARYL)CATECHOL DERIVATIVES AS HERBICIDES” (E I DU PONT DE NEMOURS AND COMPANY, priority 2014, published 2017)

Key:
Test in all cases: Test E postemergence
Format in all cases: in vivo
Details in all cases: scale 0 to 100
[1] = tested on: Brazilian crabgrass (Digitaria horizontalis)
Text: (§1) Seeds of plant species selected from corn (Zea mays), soybean (Glycine max), velvetleaf (Abutilon theophrasti), cocklebur (common cocklebur, Xanthium strumarium), lambsquarters (Chenopodium album), wild poinsettia (Euphorbia heterophylla), palmer pigweed (Amaranthus palmeri), waterhemp (common waterhemp, Amaranthus rudis), surinam grass (Brachiaria decumbens), large (Lg) crabgrass (Digitaria sanguinalis), Brazilian crabgrass (Digitaria horizontalis), fall panicum (Panicum dichotomiflorum), giant foxtail (Setaria faberii), green foxtail (Setaria viridis), goosegrass (Eleusine indica), johnsongrass (Sorghum halepense), ragweed (common ragweed, Ambrosia elatior), barnyardgrass (Echinochloa crus-galli), sandbur (southern sandbur, Cenchrus echinatus), arrowleaf sida (Sida rhombifolia), Italian ryegrass (Lolium multiflorum), dayflower (Virginia (VA) dayflower, Commelina virginica), field bindweed (Convolvulus arvensis), morningglory (Ipomoea coccinea), nightshade (eastern black nightshade, Solanum ptycanthum), kochia (Kochia scoparia), yellow nutsedge (Cyperus esculentus), horseweed (Conyza canadensis), and hairy beggarticks (Bidens pilosa), were planted into a silt loam soil and treated preemergence with test chemicals formulated in a non-phytotoxic solvent mixture which included a surfactant.
(§2) At the same time, plants from these crop and weed species and also waterhemp_RES1, (ALS & Triazine resistant common waterhemp, Amaranthus rudis), and waterhemp_RES2, (ALS & HPPD resistant common waterhemp, Amaranthus rudis) were planted in pots containing Redi-Earth® planting medium (Scotts Company, 14111 Scottslawn Road, Marysville, Ohio 43041) comprising spaghnum peat moss, vermiculite, wetting agent and starter nutrients were treated with postemergence applications of test chemicals formulated in the same manner. Plants ranged in height from 2 to 18 cm for postemergence treatments (1- to 4-leaf stage). Treated plants and controls were maintained in a greenhouse for 14 to 21 days, after which time all species were compared to controls and visually evaluated. Plant response ratings, summarized in Table E, are based on a scale of 0 to 100 where 0 is no effect and 100 is complete control. A dash (-) response means no test result.

[2] = tested on: Italian ryegrass (Lolium multiflorum)
Text: as §1, §2

[3] = tested on: arrowleaf sida (Sida rhombifolia)
Text: as §1, §2

[4] = tested on: barnyardgrass (Echinochloa crus-galli)
Text: as §1, §2

corn (Zea mays) = tested on: corn (Zea mays)
Text: as §1, §2

[5] = tested on: dayflower (Virginia (VA) dayflower, Commelina virginica)
Text: as §1, §2

[6] = tested on: fall panicum (Panicum dichotomiflorum)
Text: as §1, §2

[7] = tested on: field bindweed (Convolvulus arvensis)
Text: as §1, §2

[8] = tested on: hairy beggarticks (Bidens pilosa)
Text: as §1, §2

[9] = tested on: horseweed (Conyza canadensis)
Text: as §1, §2

kochia (Kochia scoparia) = tested on: kochia (Kochia scoparia)
Text: as §1, §2

[10] = tested on: palmer pigweed (Amaranthus palmeri)
Text: as §1, §2

[11] = tested on: ragweed (common ragweed, Ambrosia elatior)
Text: as §1, §2

[12] = tested on: sandbur (southern sandbur, Cenchrus echinatus)
Text: as §1, §2

soybean (Glycine max) = tested on: soybean (Glycine max)
Text: as §1, §2

[13] = tested on: waterhemp (common waterhemp, Amaranthus rudis)
Text: as §1, §2

[14] = tested on: waterhemp_RES1 (ALS & Triazine resistant common waterhemp, Amaranthus rudis)
Text: as §1, §2

[15] = tested on: waterhemp_RES2 (ALS & HPPD resistant common waterhemp, Amaranthus rudis)
Text: as §1, §2

[16] = tested on: wild poinsettia (Euphorbia heterophylla)
Text: as §1, §2

N#Cc1cccc(Oc2ncc(Cl)cn2)c1Oc1ccc(Cl)cc1 [Compound 36]
0: Plant response rating, Horseweed ([9]; 16 g ai/ha) | Plant response rating, Horseweed ([9]; 31 g ai/ha)
30: Plant response rating, Crabgrass, Brazil ([1]; 62 g ai/ha) | Plant response rating, Crabgrass, Brazil ([1]; 125 g ai/ha) | Plant response rating, Ryegrass, Italian ([2]; 125 g ai/ha) | Plant response rating, Barnyardgrass ([4]; 62 g ai/ha) | Plant response rating, Beggarticks ([8]; 16 g ai/ha) | Plant response rating, Beggarticks ([8]; 62 g ai/ha)
70: Plant response rating, Arrowleaf Sida ([3]; 16 g ai/ha) | Plant response rating, Arrowleaf Sida ([3]; 31 g ai/ha) | Plant response rating, Dayflower, VA ([5]; 125 g ai/ha) | Plant response rating, Soybean (soybean (Glycine max); 62 g ai/ha) | Plant response rating, Poinsettia, Wild ([16]; 62 g ai/ha)
98: Plant response rating, Waterhemp_RES1 ([14]; 16 g ai/ha)
15: Plant response rating, Ryegrass, Italian ([2]; 31 g ai/ha) | Plant response rating, Panicum, Fall ([6]; 62 g ai/ha) | Plant response rating, Ragweed ([11]; 16 g ai/ha)
85: Plant response rating, Arrowleaf Sida ([3]; 125 g ai/ha) | Plant response rating, Field Bindweed ([7]; 125 g ai/ha) | Plant response rating, Pigweed, Palmer ([10]; 31 g ai/ha) | Plant response rating, Pigweed, Palmer ([10]; 62 g ai/ha) | Plant response rating, Pigweed, Palmer ([10]; 125 g ai/ha)
100: Plant response rating, Kochia (kochia (Kochia scoparia); 62 g ai/ha) | Plant response rating, Waterhemp_RES1 ([14]; 125 g ai/ha)
5: Plant response rating, Horseweed ([9]; 62 g ai/ha)
95: Plant response rating, Kochia (kochia (Kochia scoparia); 31 g ai/ha) | Plant response rating, Kochia (kochia (Kochia scoparia); 125 g ai/ha) | Plant response rating, Waterhemp ([13]; 16 g ai/ha) | Plant response rating, Waterhemp ([13]; 62 g ai/ha) | Plant response rating, Waterhemp ([13]; 125 g ai/ha) | Plant response rating, Waterhemp_RES1 ([14]; 31 g ai/ha) | Plant response rating, Waterhemp_RES1 ([14]; 62 g ai/ha)
10: Plant response rating, Ryegrass, Italian ([2]; 16 g ai/ha) | Plant response rating, Ryegrass, Italian ([2]; 62 g ai/ha) | Plant response rating, Corn (corn (Zea mays); 16 g ai/ha) | Plant response rating, Horseweed ([9]; 125 g ai/ha) | Plant response rating, Sandbur ([12]; 16 g ai/ha)
60: Plant response rating, Dayflower, VA ([5]; 62 g ai/ha) | Plant response rating, Soybean (soybean (Glycine max); 16 g ai/ha) | Plant response rating, Waterhemp_RES2 ([15]; 16 g ai/ha) | Plant response rating, Poinsettia, Wild ([16]; 31 g ai/ha)
40: Plant response rating, Field Bindweed ([7]; 16 g ai/ha) | Plant response rating, Beggarticks ([8]; 125 g ai/ha)
65: Plant response rating, Field Bindweed ([7]; 62 g ai/ha)
80: Plant response rating, Arrowleaf Sida ([3]; 62 g ai/ha) | Plant response rating, Waterhemp_RES2 ([15]; 62 g ai/ha)
90: Plant response rating, Kochia (kochia (Kochia scoparia); 16 g ai/ha) | Plant response rating, Waterhemp ([13]; 31 g ai/ha) | Plant response rating, Waterhemp_RES2 ([15]; 31 g ai/ha) | Plant response rating, Waterhemp_RES2 ([15]; 125 g ai/ha) | Plant response rating, Poinsettia, Wild ([16]; 125 g ai/ha)
20: Plant response rating, Crabgrass, Brazil ([1]; 16 g ai/ha) | Plant response rating, Crabgrass, Brazil ([1]; 31 g ai/ha) | Plant response rating, Barnyardgrass ([4]; 16 g ai/ha) | Plant response rating, Corn (corn (Zea mays); 31 g ai/ha) | Plant response rating, Corn (corn (Zea mays); 62 g ai/ha) | Plant response rating, Dayflower, VA ([5]; 16 g ai/ha) | Plant response rating, Panicum, Fall ([6]; 16 g ai/ha) | Plant response rating, Sandbur ([12]; 31 g ai/ha) | Plant response rating, Sandbur ([12]; 62 g ai/ha)
75: Plant response rating, Pigweed, Palmer ([10]; 16 g ai/ha)
25: Plant response rating, Barnyardgrass ([4]; 31 g ai/ha) | Plant response rating, Corn (corn (Zea mays); 125 g ai/ha) | Plant response rating, Panicum, Fall ([6]; 31 g ai/ha) | Plant response rating, Panicum, Fall ([6]; 125 g ai/ha) | Plant response rating, Ragweed ([11]; 31 g ai/ha) | Plant response rating, Sandbur ([12]; 125 g ai/ha)
35: Plant response rating, Beggarticks ([8]; 31 g ai/ha) | Plant response rating, Ragweed ([11]; 62 g ai/ha)
50: Plant response rating, Barnyardgrass ([4]; 125 g ai/ha) | Plant response rating, Dayflower, VA ([5]; 31 g ai/ha) | Plant response rating, Field Bindweed ([7]; 31 g ai/ha) | Plant response rating, Ragweed ([11]; 125 g ai/ha) | Plant response rating, Soybean (soybean (Glycine max); 31 g ai/ha) | Plant response rating, Soybean (soybean (Glycine max); 125 g ai/ha) | Plant response rating, Poinsettia, Wild ([16]; 16 g ai/ha)
